Columns and labels:
[1] = human, in vivo
Experimental: FIGS. 1a and 1b show accumulation of FACBC in the Virchow's node when the FACBC is injected into the left arm.
In some embodiments, the right arm may be preferred as stasis in the axillary vein upon injection in the left arm may be misinterpreted as a metastatic lymph node called Virchow's node, which is located in the left supraclavicular fossa (the area above the left clavicle, or collar bone). For example, FIGS. 1a and 1b show accumulation of FACBC in the Virchow's node when the FACBC is injected into the left arm.

[2] = system: known prostate carcinoma recurrence; assay: PET time activity curves (FIG. 3); format: in vivo, human; details: for time at which plateau was reached: remained constant throughout the imaging period
Experimental: Regions in marrow (ilium), muscle (gluteus), and bladder reached a plateau at 4.5 minutes that remained constant throughout the imaging period.

## N[C@]1(C(=O)O)C[C@@H](F)C1 [fluciclovine, anti-1-amino-3-^18F-fluorocyclobutane-1-carboxylic acid]
[1]
  standardized uptake value (SUV): > 200
[2]; bladder
  time at which plateau was reached: 4.5 min
[2]; known prostate carcinoma recurrence
  time of maximum uptake: 4.5 min
[2]; known prostate carcinoma recurrence, after maximum at 4.5 minutes
  plateau of uptake lasting to: 30 min
[2]; known prostate carcinoma recurrence, after plateau, out to 60 minutes
  gradual clearance: 9 %/min
[2]; marrow (ilium)
  time at which plateau was reached: 4.5 min
[2]; muscle (gluteus)
  time at which plateau was reached: 4.5 min

From patent US11980674B2, “Imaging of metastatic or recurrent cancer” (Blue Earth Diagnostics Limited, priority 2020, dated 2024)
